# Experimental data reported in patent US8008260B2, “Methods of protecting against apoptosis using lipopeptides” (Cleveland Clinic Foundation, priority 2005, dated 2011).
# Peptide text beside a SMILES is read from it. * marks the point of attachment. Propyl(2R-PamO,3-PamO) = CCCCCCCCCCCCCCCC(=O)OC[C@H](C*)OC(=O)CCCCCCCCCCCCCCC; X1 = CCCCCCCCCCCCCCCC(=O)OCC(C*)OC(=O)CCCCCCCCCCCCCCC
# Columns and labels:
# [1] = target: T1, TLR2/TLR6 heterodimer (Homo sapiens, UniProt O60603+Q9Y2C9); experiment: NF-κB-dependent reporter activity in 293 cells expressing the TLR2/TLR6 heterodimer; format: cell-based; parameters: NF-κB activation: scale not given here; conditions: for NF-κB activation: in vitro activity, 293 cells expressing TLR2/TLR6; for activation of the NF-κB reporter (in words, compared with CBLB601): 293 cells expressing TLR2/TLR6, various doses
# T1 construct: expressed in transfected cells; host or cells: 293 cells
# Protocol: NF-κB-dependent reporter activity was measured in 293 cells that expressed the TLR2/YLR6 heterodimer. […] None of the non-palmitoylated corresponding peptides activated the NF-κB reporter (FIG. 18B). The peptide component of CBLB617 has a (−4) charge, which should prevent it from interacting with negatively charged cell surface markers. […] Table 5 summarizes the in vitro activity and solubility of all the compounds.
# [2] = Solubility of the lipopeptides
# [3] = tested on: ICR mice; experiment: Radioprotection against total body gamma irradiation (TBI), 30-day survival; format: in vivo; conditions: for toxicity in combination with radiation: i.m. 24 hours before 10 Gy TBI; for rank of radioprotective potency: i.m. 24 hrs before 10 Gy TBI
# Excerpt: CBLB601, a R-Pam2-lipopeptide with the peptide moiety consisting of C-SKKKK (SEQ ID NO: 8), was selected for more detailed characterization as a radioprotector based upon its ability to activate NF-κB and preliminary in vivo data on radioprotection in NIH-SWISS mice (see Example 2). The objectives of this study were to determine the optimal dose, route of administration, and time of administration of CBLB601 to serve as a protector. ICR female mice of 10-15 weeks of age were used, with 10-15 animals per group or condition.
# The optimal intraperitoneal administration schedule of CBLB601 was determined by injecting the compound at different times prior to irradiation. […] Therefore, all of the optimization experiments were performed with 10 Gy of total body irradiation (TBI). A dose of 3 μg of BCLB601/mouse (1/10 NOAEL) was chosen as the starting dose. Thus, 3 μg of CBLB601 was injected i.p. into ICR mice at 0.5 h, 1 h, 6 h, and 24 h or 1 h, 24 h, 48 h, 72 h, 96 h prior to 10 Gy of TBI (as described in Example 1). […] Injection of CBLB601 24 hrs before irradiation clearly yielded the best radioprotection (90-100% 30-day survival). When the compound was administered 48 hrs before irradiation, the radioprotection was ˜30%. Administration of CBLB601 at 1 hr prior to irradiation produced inconsistent results ranging from 80% protection in one experiment (FIG. 5B) to almost no protection (20%) in another experiment (FIG. 5A).
# To determine the optimal radioprotective dose of CBLB601, the timing of injection and level of irradiation were kept constant, while the dose of CBLB601 was varied. ICR mice were injected i.p. with 1, 3, 10, 20, or 30 μg of CBLB601/mouse or 0.1, 0.3, 1, 3, 10, or […] 24 hrs prior to irradiation (10 Gy of TBI), and their survival was monitored for 30 days. The best protective dose was 3 μg/mouse, which supported a survival of 100% (FIGS. 6 A and B). […] Thus, the optimal protective dose of CBLB601 was determined to be 3 μg/mouse.
# To determine the level of radiation that was protected by CBLB601, radioprotectant-treated and control mice were exposed to increasing levels of TBI. Groups of ICR mice were injected i.p. with either 3 μg CBLB601/mouse or PBS, and then 24 h later they received 10, 11, 12, 13, 14, and 15 Gy doses of TBI. Survival was recorded over 30 days. […] All of the mice irradiated with 10-11 Gy of TBI died between days 12-14 post irradiation, which was typical for death due to hematopoietic failure. All of the mice that received 14-15 Gy of TBI died between days 7-9 post irradiation, which was typical for mortality due to radiation-induced intestinal damage. Mice that were irradiated with 12-13 Gy of TBI died at intermediate times, which was typical for a mixed etiology of radiation-induced mortality. […] To reach a statistically significant 10% difference between control and CBLB601-treated mice, experimental groups of at least 50 mice must be used. Although CBLB601 rescued 100% of mice from 10 Gy of TBI, its protection at 11 Gy of TBI was only 20%. […] This may be indicative of a combined toxicity of the drug and the irradiation.
# CBLB601 was administered intramuscularly to determine the optimal route of administration of this compound (especially since this would be the preferred route of administration for humans). […] In another experiment, increasing doses of CBLB601 administered i.m. were tested against 10, 11, and 12 Gy doses of […] (FIG. 9). […] A summary of the dose-dependency of the radioprotection of […] administered i.p. or i.m. 24 h prior to 10 Gy of TBI is shown in FIG. 10.
# The optimal schedule of intramuscular administration of CBLB601 was determined by varying the time between drug delivery and irradiation. ICR mice were injected i.m. with 3 μg of CBLB601/mouse 24 h, 6 h, 3 h, and 1 h prior to TBI and +1 h, +3 h after TBI (FIG. 12A), as well as 48 h, 36 h, 24 h, 12 h, and 6 h prior to TBI (FIG. 12B). […]
# T1 sequence (O60603 21-784): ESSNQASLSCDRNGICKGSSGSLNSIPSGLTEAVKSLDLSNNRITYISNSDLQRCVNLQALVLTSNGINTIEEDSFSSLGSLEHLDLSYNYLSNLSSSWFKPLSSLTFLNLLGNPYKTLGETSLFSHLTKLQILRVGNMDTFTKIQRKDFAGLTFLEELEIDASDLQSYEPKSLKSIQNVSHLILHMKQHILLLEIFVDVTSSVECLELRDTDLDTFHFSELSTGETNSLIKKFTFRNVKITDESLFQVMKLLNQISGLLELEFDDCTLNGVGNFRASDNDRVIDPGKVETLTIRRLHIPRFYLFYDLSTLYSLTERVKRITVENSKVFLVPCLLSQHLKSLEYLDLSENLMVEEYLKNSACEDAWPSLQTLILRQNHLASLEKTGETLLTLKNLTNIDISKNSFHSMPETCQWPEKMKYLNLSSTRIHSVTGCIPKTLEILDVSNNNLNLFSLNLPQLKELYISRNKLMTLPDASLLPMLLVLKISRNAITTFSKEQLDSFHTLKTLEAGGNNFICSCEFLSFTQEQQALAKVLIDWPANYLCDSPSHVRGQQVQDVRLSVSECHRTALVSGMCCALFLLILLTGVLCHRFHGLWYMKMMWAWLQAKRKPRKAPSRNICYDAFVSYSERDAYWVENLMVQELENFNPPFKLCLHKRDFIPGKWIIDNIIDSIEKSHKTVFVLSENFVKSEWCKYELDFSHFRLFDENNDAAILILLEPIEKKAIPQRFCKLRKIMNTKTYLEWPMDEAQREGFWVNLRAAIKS
# T1 sequence (Q9Y2C9 32-796): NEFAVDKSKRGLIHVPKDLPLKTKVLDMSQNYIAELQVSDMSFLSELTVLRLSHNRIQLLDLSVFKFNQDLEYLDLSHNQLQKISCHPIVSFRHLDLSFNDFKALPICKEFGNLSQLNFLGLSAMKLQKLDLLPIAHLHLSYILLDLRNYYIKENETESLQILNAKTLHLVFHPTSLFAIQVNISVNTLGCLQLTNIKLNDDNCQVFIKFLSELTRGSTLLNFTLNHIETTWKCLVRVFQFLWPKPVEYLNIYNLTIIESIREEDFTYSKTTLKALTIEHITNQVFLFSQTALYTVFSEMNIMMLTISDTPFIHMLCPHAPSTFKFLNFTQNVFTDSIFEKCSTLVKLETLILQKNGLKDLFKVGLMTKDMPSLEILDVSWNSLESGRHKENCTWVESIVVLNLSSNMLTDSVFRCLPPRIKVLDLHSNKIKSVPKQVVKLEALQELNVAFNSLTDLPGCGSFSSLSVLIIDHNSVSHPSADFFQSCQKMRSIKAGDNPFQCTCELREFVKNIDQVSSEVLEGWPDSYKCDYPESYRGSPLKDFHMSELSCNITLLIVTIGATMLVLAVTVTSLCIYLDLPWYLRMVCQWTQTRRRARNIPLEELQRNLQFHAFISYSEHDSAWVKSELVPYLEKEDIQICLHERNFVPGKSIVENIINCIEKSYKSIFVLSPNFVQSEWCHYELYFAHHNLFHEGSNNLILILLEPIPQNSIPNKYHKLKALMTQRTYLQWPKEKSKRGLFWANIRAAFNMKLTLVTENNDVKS
Structure (SMILES),NF-κB activation [1],Solubility [2],"activation of the NF-κB reporter (in words, compared with CBLB601) [1]",other results
CCCCCCCCCCCCCCCC(=O)OCC(CSC[C@H](N)C(=O)NCC(=O)N[C@@H](CCC(=O)O)C(=O)N[C@H](C(=O)N[C@@H](CC(=O)O)C(=O)N[C@@H](CCCCN)C(=O)N[C@@H](CCC(=O)O)C(=O)NCC(=O)N[C@@H](CCCCN)C(=O)N[C@H](C(=O)N[C@H](C(=O)N[C@@H](CCCNC(=N)N)C(=O)N[C@H](C(=O)N[C@@H](Cc1ccccc1)C(=O)N[C@@H](CC(=O)O)C(=O)N[C@@H](CC(N)=O)C(=O)N[C@@H](CO)C(=O)N[C@@H](Cc1ccccc1)C(=O)O)[C@@H](C)CC)[C@@H](C)CC)[C@@H](C)CC)[C@@H](C)O)OC(=O)CCCCCCCCCCCCCCC (stereo partly shown) [CBLB611] (H-C(X1)GETDKEGKIIRIFDNSF-OH),0,–,–,–
CCCCCCCCCCCCCCCC(=O)OCC(CSC[C@H](N)C(=O)NCC(=O)N[C@@H](CCC(N)=O)C(=O)N[C@@H](Cc1c[nH]cn1)C(=O)N[C@@H](Cc1c[nH]cn1)C(=O)N[C@@H](CCSC)C(=O)O)OC(=O)CCCCCCCCCCCCCCC (stereo partly shown) [CBLB603] (H-C(X1)GQHHM-OH),0,Poor,–,–
"CCCCCCCCCCCCCCCC(=O)OC[C@H](CSC[C@H](N)C(=O)NCC(=O)N[C@@H](CC(=O)O)C(=O)N1CCC[C@H]1C(=O)N[C@@H](CCCCN)C(=O)N[C@@H](Cc1c[nH]cn1)C(=O)N1CCC[C@H]1C(=O)N[C@@H](CCCCN)C(=O)N[C@@H](CO)C(=O)N[C@@H](Cc1ccccc1)C(=O)O)OC(=O)CCCCCCCCCCCCCCC [CBLB606] (H-C(Propyl(2R-PamO,3-PamO))GDPKHPKSF-OH; C-terminus assumed)",100,Poor,–,–
CCCCCCCCCCCCCCCC(=O)OCC(CSC[C@H](N)C(=O)NCC(=O)N[C@@H](CCC(N)=O)C(=O)N[C@@H](Cc1c[nH]cn1)C(=O)N[C@@H](Cc1c[nH]cn1)C(=O)N[C@@H](Cc1c[nH]cn1)C(=O)O)OC(=O)CCCCCCCCCCCCCCC (stereo partly shown) [CBLB602] (H-C(X1)GQHHH-OH),0,Poor,–,–
"CCCCCCCCCCCCCCCC(=O)OC[C@H](CSC[C@H](N)C(=O)NCC(=O)N[C@@H](CCC(=O)O)C(=O)N[C@@H](CCC(=O)O)C(=O)N[C@@H](CC(=O)O)C(=O)N[C@@H](CC(=O)O)C(=O)O)OC(=O)CCCCCCCCCCCCCCC [CBLB617] (H-C(Propyl(2R-PamO,3-PamO))GEEDD-OH)",100,Soluble,comparable to that of CBLB601,"survival ([3]; after 13 days, doses of 10-87.5 μg/mouse respectively, 10 Gy TBI): 7-90%; visible toxicity ([3]; after 13 days, highest dose 87.5 μg/mouse, 10 Gy TBI): no visible toxicity"
CCCCCCCCCCCCCCCC(=O)OCC(CSC[C@H](N)C(=O)NCC(=O)N[C@@H](CO)C(=O)N[C@@H](Cc1c[nH]cn1)C(=O)N[C@@H](Cc1c[nH]cn1)C(=O)N[C@@H](CCSC)C(=O)O)OC(=O)CCCCCCCCCCCCCCC (stereo partly shown) [CBLB604] (H-C(X1)GSHHM-OH),0,Poor,–,–
CCCCCCCCCCCCCCCC(=O)OCC(CSC[C@H](N)C(=O)N[C@@H](CO)C(=O)N[C@@H](CCC(N)=O)C(=O)N[C@@H](CCSC)C(=O)N[C@@H](Cc1c[nH]cn1)C(=O)N[C@@H](Cc1c[nH]cn1)C(=O)O)OC(=O)CCCCCCCCCCCCCCC (stereo partly shown) [CBLB605] (H-C(X1)SQMHH-OH),2,Poor,–,–
"CCCCCCCCCCCCCCCC(=O)OC[C@H](CSC[C@H](N)C(=O)NCC(=O)N[C@@H](CCC(=O)O)C(=O)N[C@H](C(=O)N[C@@H](CC(=O)O)C(=O)N[C@@H](CCCCN)C(=O)O)[C@@H](C)O)OC(=O)CCCCCCCCCCCCCCC [CBLB613] (H-C(Propyl(2R-PamO,3-PamO))GETDK-OH)",200,Soluble,comparable to that of CBLN601,"protection (30-day survival) ([3]; doses of 10, 30 and 82.5 μg/mouse i.m. 24 hours before 10 Gy TBI): 100%; toxicity in combination with radiation [3]: non-toxic in combination with the radiation; radioprotector quality compared with CBLB601 ([3]; mouse, in vivo): significantly better radioprotectors than CBLB601; therapeutic index ([3]; summary of Example 5): ~20"
"CCCCCCCCCCCCCCCC(=O)OC[C@H](CSC[C@H](N)C(=O)N[C@@H](CCC(N)=O)C(=O)NCC(=O)N[C@@H](CCC(=O)O)C(=O)N[C@@H](CCC(=O)O)C(=O)N[C@@H](CO)C(=O)N[C@@H](CC(N)=O)C(=O)N[C@@H](CC(=O)O)C(=O)N[C@@H](CCCCN)C(=O)O)OC(=O)CCCCCCCCCCCCCCC [CBLB614] (H-C(Propyl(2R-PamO,3-PamO))QGEESNDK-OH)",200,Soluble,better activators than CBLB601,toxicity in combination with radiation [3]: no toxicity in combination with radiation; rank of radioprotective potency [3]: CBLB612>CBLB614>CBLB615
CCCCCCCCCCCCCCCC(=O)OCC(CSC[C@H](N)C(=O)N[C@@H](Cc1ccccc1)C(=O)N[C@@H](CCC(=O)O)C(=O)N1CCC[C@H]1C(=O)N1CCC[C@H]1C(=O)N1CCC[C@H]1C(=O)N[C@@H](C)C(=O)N[C@H](C(=O)N[C@H](C(=O)N[C@H](C(=O)N[C@@H](CCCCN)C(=O)N[C@@H](CO)C(=O)N[C@@H](CCCCN)C(=O)O)[C@@H](C)O)[C@@H](C)O)[C@@H](C)O)OC(=O)CCCCCCCCCCCCCCC (stereo partly shown) [CBLB608] (H-C(X1)FEPPPATTTKSK-OH),2,Excellent,–,–
"CCCCCCCCCCCCCCCC(=O)OC[C@H](CSC[C@H](N)C(=O)NCC(=O)N[C@@H](CCC(=O)O)C(=O)N[C@@H](CCC(=O)O)C(=O)N[C@@H](CO)C(=O)N[C@@H](CC(N)=O)C(=O)O)OC(=O)CCCCCCCCCCCCCCC [CBLB615] (H-C(Propyl(2R-PamO,3-PamO))GEESN-OH)",200,Soluble,better activators than CBLB601,toxicity in combination with radiation [3]: no toxicity in combination with radiation; rank of radioprotective potency [3]: CBLB612>CBLB614>CBLB615
CCCCCCCCCCCCCCCC(=O)OCC(CSC[C@H](N)C(=O)NCC(=O)N[C@@H](CC(=O)O)C(=O)N1CCC[C@H]1C(=O)N[C@@H](CCCCN)C(=O)N[C@@H](Cc1c[nH]cn1)C(=O)N1CCC[C@H]1C(=O)N[C@@H](CCCCN)C(=O)N[C@@H](CO)C(=O)N[C@@H](Cc1ccccc1)C(=O)N[C@H](C(=O)NCC(=O)N[C@@H](Cc1c[nH]c2ccccc12)C(=O)N[C@H](C(=O)N[C@@H](C)C(=O)O)C(C)C)[C@@H](C)O)OC(=O)CCCCCCCCCCCCCCC (stereo partly shown) [CBLB607] (H-C(X1)GDPKHPKSFTGWVA-OH),2,Poor,–,–
